# Measurements from PubChem BioAssay (NCI).
#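 All cell lines were grown in 96-well plates and treated with compound for 48 hours. TGI denotes the concentration required for complete inhibition of growth.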
# What was measured:
# Assay in all cases: NCI tumour cell line growth inhibition, 48 h
# [1] = test system: SF-295 CNS
# [2] = test system: UO-31 renal
# [3] = test system: SNB-19 CNS
# [4] = test system: OVCAR-5 ovarian
# [5] = test system: RPMI-8226 leukemia
# [6] = test system: LOX IMVI melanoma
# [7] = test system: A498 renal
# [8] = test system: COLO 205 colon
# [9] = test system: HOP-62 NSCLC
# [10] = test system: NCI-H23 lung
# [11] = test system: SN12C renal
# [12] = test system: HOP-18 NSCLC
# [13] = test system: SNB-75 CNS
# [14] = test system: OVCAR-8 ovarian
# [15] = test system: A549 NSCLC
# [16] = test system: UACC-257 melanoma
# [17] = test system: P388/ADR leukemia
# [18] = test system: NCI-H226 lung
# [19] = test system: SK-OV-3 ovarian
# [20] = test system: SK-MEL-2 melanoma
# [21] = test system: CCRF-CEM leukemia
# [22] = test system: HCT-116 colon
# [23] = test system: P388 leukemia
# [24] = test system: XF 498 CNS
# [25] = test system: EKVX NSCLC
# [26] = test system: SK-MEL-28 melanoma
# [27] = test system: NCI/ADR-RES ovarian
# [28] = test system: OVCAR-4 ovarian
# [29] = test system: OVCAR-3 ovarian
# [30] = test system: SF-539 CNS
# [31] = test system: HT29 colon
# [32] = test system: HOP-92 NSCLC
# [33] = test system: CAKI-1 renal
# [34] = test system: HCC-2998 colon
# [35] = test system: SK-MEL-5 melanoma
# [36] = test system: UACC-62 melanoma
# [37] = test system: NCI-H522 lung
# [38] = test system: KM20L2 colon
# [39] = test system: M19-MEL melanoma
# [40] = test system: IGROV1 ovarian
# [41] = test system: SF-268 CNS
# [42] = test system: SNB-78 CNS
# [43] = test system: HL-60(TB) leukemia
# [44] = test system: SN12K1 renal
# [45] = test system: RXF 393 renal
# [46] = test system: SW-620 colon
# [47] = test system: U251 CNS
# [48] = test system: KM12 colon
# [49] = test system: DMS 114 small cell lung
# [50] = test system: DLD-1 colon
# [51] = test system: MALME-3M melanoma
# [52] = test system: HCT-15 colon
# [53] = test system: MOLT-4 leukemia
# [54] = test system: MCF7 breast
# [55] = test system: NCI-H460 lung
# [56] = test system: K-562 leukemia
# [57] = test system: DMS 273 small cell lung
# [58] = test system: M14 melanoma
# [59] = test system: 786-0 renal
# [60] = test system: SR leukemia
# [61] = test system: MDA-MB-435
# [62] = test system: TK-10 renal
# [63] = test system: ACHN renal
# [64] = test system: BT-549 breast
# [65] = test system: MDA-MB-231 breast
# [66] = test system: RXF-631 renal
# [67] = test system: T-47D breast
# [68] = test system: DU-145 prostate
# [69] = test system: LXFL 529 NSCLC
# [70] = test system: PC-3 prostate
# [71] = test system: HS 578T breast
# [72] = test system: MDA-N
structure (smiles),measurement,setting,value
Nc1ncnc2c1ncn2C1OC(COP(=O)(O)O)C(O)C1O (stereo unspecified),TGI,[1],> 50 µM
same,TGI,[2],> 50 µM
same,TGI,[3],> 50 µM
same,TGI,[4],> 50 µM
same,TGI,[5],> 50 µM
same,TGI,[6],> 50 µM
same,TGI,[7],> 50 µM
same,TGI,[8],> 50 µM
same,TGI,[9],> 50 µM
same,TGI,[10],> 50 µM
same,TGI,[11],> 50 µM
same,TGI,[12],> 50 µM
same,TGI,[13],> 50 µM
same,TGI,[14],15.2 µM
same,TGI,[15],> 50 µM
same,TGI,[16],> 50 µM
same,TGI,[17],> 50 µM
same,TGI,[18],> 50 µM
same,TGI,[19],> 50 µM
same,TGI,[20],> 50 µM
same,TGI,[21],> 50 µM
same,TGI,[22],> 50 µM
same,TGI,[23],> 37.3 µM
same,TGI,[24],> 44.7 µM
same,TGI,[25],> 50 µM
same,TGI,[26],> 50 µM
same,TGI,[27],> 32.2 µM
same,TGI,[28],> 50 µM
same,TGI,[29],> 50 µM
same,TGI,[30],> 50 µM
same,TGI,[31],> 50 µM
same,TGI,[32],> 46.6 µM
same,TGI,[33],> 50 µM
same,TGI,[34],> 50 µM
same,TGI,[35],> 50 µM
same,TGI,[36],> 50 µM
same,TGI,[37],> 50 µM
same,TGI,[38],> 50 µM
same,TGI,[39],> 50 µM
same,TGI,[40],> 50 µM
same,TGI,[41],> 50 µM
same,TGI,[42],> 50 µM
same,TGI,[43],> 50 µM
same,TGI,[44],> 50 µM
same,TGI,[45],> 50 µM
same,TGI,[46],> 50 µM
same,TGI,[47],> 50 µM
same,TGI,[48],> 50 µM
same,TGI,[49],> 50 µM
same,TGI,[50],> 31.6 µM
same,TGI,[51],> 50 µM
same,TGI,[52],> 50 µM
same,TGI,[53],> 50 µM
same,TGI,[54],> 50 µM
same,TGI,[55],> 50 µM
same,TGI,[56],> 50 µM
same,TGI,[57],> 50 µM
COC(=O)[C@@]12C(=O)C=CC(=O)[C@@H]1C1C(=CC2COC(C)=O)O[C@@H]2OC3(CCCCC3)O[C@H]12 (stereo partly specified),TGI,[1],29.7 µM
same,TGI,[2],28.3 µM
same,TGI,[3],29.8 µM
same,TGI,[4],30.7 µM
same,TGI,[5],22.7 µM
same,TGI,[6],24.6 µM
same,TGI,[7],37.4 µM
same,TGI,[58],30.1 µM
same,TGI,[8],18.4 µM
same,TGI,[59],18.7 µM
same,TGI,[9],35 µM
same,TGI,[60],> 100 µM
same,TGI,[10],35.9 µM
same,TGI,[11],29.1 µM
same,TGI,[61],29.8 µM
same,TGI,[12],24.9 µM
same,TGI,[13],26.4 µM
same,TGI,[14],20 µM
same,TGI,[15],22.4 µM
same,TGI,[16],30.3 µM
same,TGI,[18],32.4 µM
same,TGI,[62],20.6 µM
same,TGI,[19],30 µM
same,TGI,[20],37.3 µM
same,TGI,[21],17 µM
same,TGI,[22],15.5 µM
same,TGI,[63],23.9 µM
same,TGI,[64],26 µM
same,TGI,[24],26.3 µM
same,TGI,[25],32.8 µM
same,TGI,[26],32.7 µM
same,TGI,[27],28.7 µM
same,TGI,[28],19.7 µM
same,TGI,[29],17.1 µM
same,TGI,[30],24.7 µM
same,TGI,[65],39.9 µM
same,TGI,[31],19.3 µM
same,TGI,[32],21.2 µM
same,TGI,[33],25.4 µM
same,TGI,[34],30.4 µM
same,TGI,[35],32.5 µM
same,TGI,[66],50 µM
same,TGI,[67],13.2 µM
same,TGI,[68],32.2 µM
same,TGI,[36],25.9 µM
same,TGI,[37],6.29 µM
same,TGI,[38],31.8 µM
same,TGI,[69],15 µM
same,TGI,[39],29.6 µM
same,TGI,[40],31.6 µM
same,TGI,[41],23.7 µM
same,TGI,[70],25.3 µM
same,TGI,[42],51 µM
same,TGI,[43],> 25.6 µM
same,TGI,[45],23.4 µM
same,TGI,[46],12.1 µM
same,TGI,[47],29.2 µM
same,TGI,[48],26.5 µM
same,TGI,[49],13.5 µM
same,TGI,[50],22.7 µM
same,TGI,[51],30.2 µM
same,TGI,[52],18.7 µM
same,TGI,[53],21 µM
same,TGI,[54],32.3 µM
same,TGI,[55],32.9 µM
same,TGI,[71],31.6 µM
same,TGI,[56],43.8 µM
same,TGI,[72],25.1 µM
same,TGI,[57],23.6 µM
